{
  "source": "patent US20250009819A1",
  "about": "“NOVEL PROBIOTICS AND USE THEREOF” (PBLBIOLAB CO., LTD., priority 2021, published 2025)",
  "format_in_all_cases": "in vivo, C57BL/6 male mice",
  "key": {"[1]": {"test_system": "animals with antibiotic-induced gut microbiota imbalance", "experiment": "Animals with antibiotic (ampicillin)-induced gut microbiota imbalance: improvement effect in spleen", "conditions": "ampicillin (AP)-treated mice, 1×10^9 CFU/mouse orally once a day for 5 days; for Foxp3 (fold change) / Tbet (fold change) / Tbet/Foxp3: spleen qPCR; for IFN-γ/IL-10 / IL-10 / Interferon (IFN)-γ / NK cell cytoxicity (%) / Phagocytosis (%) / TNF-a/IL-10 / TNF-α: spleen", "experimental": "(§1) Hippocampus, colon, and spleen tissues were homogenized by adding 1 ml of RIPA buffer (Gibco) containing protease inhibitor cocktail and centrifuged at 4° C., 13000 rpm for 15 min to obtain supernatant. Indicators of this supernatant were measured using an ELISA kit (Ebioscience).\n(§2) mRNA was isolated from spleen tissue using the RNA Isolation Kit: RNeasy Mini Kit (QIAGEN), converted to cDNA, and qPCR was performed to measure the expression rates of Tbet, Foxp3, and glyceraldehyde 3-phosphate dehydrogenase (GAPDH). The reaction product was first treated at 95° C. for 30 seconds, followed by 38 cycles of 5 seconds at 95° C. and 30 seconds at 72° C. for analysis.\n(§3) C57BL/6 male mice (5 weeks old, 19-21 g) were divided (6 mice in each group) and acclimatized to the laboratory for 1 week. To induce intestinal and brain diseases, the mice were orally administered with ampicillin (AP, 100 mg/kg, dissolved in physiological saline) for 3 days. Meanwhile, the normal group was orally administered with 0.1 ml of physiological saline. […] The day following the conclusion of sample administration, the experimental animals were sacrificed, and samples from the brain hippocampus, colon, and spleen were collected. In the Hippocampus, inflammatory indicators, such as IFN-γ, TNF-α, and IL-10, were measured using ELISA. In the colon, intestinal length and inflammatory indicators, such as IFN-γ, TNF-α, and IL-10, were measured. In the spleen, Th1 cells and Treg cells were measured by FACS (Fluorescence-Activated Cell Sorting), and in feces, endotoxin (LPS) and gut microbial communities were measured."}, "[2]": {"test_system": "animals with antibiotic-induced gut microbiota imbalance", "experiment": "Animals with antibiotic (ampicillin)-induced gut microbiota imbalance: cognitive improvement, hippocampus indicators", "conditions": "ampicillin (AP)-treated mice, 1×10^9 CFU/mouse orally once a day for 5 days; for IFN-γ/IL-10 / IL-10 / Interferon (IFN)-γ / TNF-a/IL-10 / TNF-α: hippocampus", "experimental": "as §1\nThe Y-shaped maze measurement device is shaped like an alphabetical Y with three arms extending from it, each arm being 25 cm long, 14 cm high, 5 cm wide, and positioned at the same angle. At the end of one arm of the Y-shaped maze, the animal was placed with its head facing out and allowed to freely navigate the arm for 8 minutes. The animal's movements were recorded, and reported as arm entries when the animal entered the arm with its hind paw, and the animal's movement was represented by an alternation, which was defined as one alternation when the animal passed through the three arms in succession. The amount of spontaneous alternation behavior was expressed as a percentage between the actual number of alternations and the maximum possible number of alternations (i.e., the total number of […] minus 2).\nThe experiment was conducted in a box (40×40×40 cm) made so that the outside could not be seen from the inside. Two objects (A, A′) of the same shape and size were fixedly disposed in a box and the mouse was relocated to start from the center of the box. Then, the number of times the mouse made contact with the two objects was recorded for 10 minutes. After 24 hours, one of the two objects was replaced with a new object (A, B). Then, one original object and one new object were prepared, and the animal's exploration time was measured.\nas §3"}, "[3]": {"test_system": "animals with LPS-induced cognitive impairment", "experiment": "Animals with LPS-induced cognitive impairment: improvement effect in spleen", "conditions": "LPS-treated mice, 1×10^9 CFU/mouse or sulfasalazine 50 mg/kg once a day for 5 days; for Foxp3 (fold change) / Tbet (fold change) / Tbet/Foxp3: spleen qPCR; for IFN-γ/IL-10 / IL-10 / Interferon (IFN)-γ / NK cell cytoxicity (%) / Phagocytosis (%) / TNF-α / TNF-α/IL-10: spleen", "experimental": "as §1, §2\nC57BL/6 male mice (5 weeks old, 19-21 g) were divided (6 mice in each group) and acclimatized to the laboratory for 1 week. To induce intestinal and brain diseases, mice were intraperitoneally administered Escherichia coli-derived LPS (10 μg/kg) once daily for 5 days. […] Experimental animals in the normal group were orally administered with a physiological saline solution, which was used to suspend lactic acid bacteria. The day following the conclusion of sample administration, the experimental animals were sacrificed, and samples from the brain hippocampus, colon, and spleen were collected. In the Hippocampus, inflammatory indicators, such as IFN-γ, TNF-α, and IL-10, were measured using ELISA. In the colon, intestinal length and inflammatory indicators, such as IFN-γ, TNF-α, and IL-10, were measured. In the spleen, Th1 cells and Treg cells were measured by FACS (Fluorescence-Activated Cell Sorting)."}, "healthy animal": {"test_system": "healthy animal", "experiment": "Healthy animal: colon parameters", "conditions": "healthy mice, 1×10^9 CFU/mouse orally once a day for 5 days", "experimental": "To 100 mg of colon tissue, 200 μl of 10 mM potassium phosphate buffer (pH 7.0) containing 0.5% hexadecyl trimethyl ammonium bromide was added and homogenized. Then, the supernatant was obtained by centrifugation for 10 minutes at 4° C. and 10,000 g. A volume of 50 μl of the supernatant was added to 0.95 mk of reaction solution (containing 1.6 mM tetramethyl benzidine and 0.1 mM H2O2), reacted at 37° C., and absorbance was monitored over time at 650 nm.\nas §1\nC57BL/6 male mice (5 weeks old, 19-21 g) were divided (6 mice in each group) and acclimatized to the laboratory for 1 week. The mice were orally administered once a day for 5 days with lactic acid bacteria as a test sample suspended in physiological saline solution at a concentration of 1×10^9 CFU per mouse (NK210 alone (LR): 1×10^9 CFU/mouse, NK219 alone (BL): 1×10^9 CFU/mouse, combined (210+219): 210, 8×10^8 CFU/mouse and 219, 2×10^8 CFU/mouse). […] The day following the conclusion of sample administration, the experimental animals were sacrificed, and samples from the brain hippocampus, colon, and spleen were collected. In the Hippocampus, inflammatory indicators, such as IFN-γ, TNF-α, and IL-10, were measured using ELISA. In the colon, intestinal length and inflammatory indicators, such as IFN-γ, TNF-α, and IL-10, were measured. In the spleen, Th1 cells and Treg cells were measured by FACS (Fluorescence-Activated Cell Sorting)."}},
  "data": [
    {"substance": "Bifidobacterium longum NK219", "values": [
      {"measurement": "Foxp3 (fold change)", "setting": "[1]", "result": 1.66, "unit": "fold change"},
      {"measurement": "Tbet (fold change)", "setting": "[1]", "result": 1.03, "unit": "fold change"},
      {"measurement": "Tbet/Foxp3", "setting": "[1]", "result": 0.74},
      {"measurement": "IFN-γ/IL-10", "setting": "[1]", "result": 0.81},
      {"measurement": "IL-10", "setting": "[1]", "result": 11.35, "unit": "pg/mg"},
      {"measurement": "Interferon (IFN)-γ", "setting": "[1]", "result": 9.12, "unit": "pg/mg"},
      {"measurement": "NK cell cytoxicity (%)", "setting": "[1]", "result": 6.47, "unit": "%"},
      {"measurement": "Phagocytosis (%)", "setting": "[1]", "result": 69.91, "unit": "%"},
      {"measurement": "TNF-a/IL-10", "setting": "[1]", "result": 0.40},
      {"measurement": "TNF-α", "setting": "[1]", "result": 4.32, "unit": "pg/mg"},
      {"measurement": "Exoporation (%) (in NOR task)", "setting": "[2]", "result": 83.21, "unit": "%"},
      {"measurement": "Spontaneous alteration (%) (in Y-maze task)", "setting": "[2]", "result": 70.54, "unit": "%"},
      {"measurement": "IFN-γ/IL-10", "setting": "[2]", "result": 0.48},
      {"measurement": "IL-10", "setting": "[2]", "result": 50.29, "unit": "pg/mg"},
      {"measurement": "Interferon (IFN)-γ", "setting": "[2]", "result": 24.33, "unit": "pg/mg"},
      {"measurement": "TNF-a/IL-10", "setting": "[2]", "result": 0.28},
      {"measurement": "TNF-α", "setting": "[2]", "result": 12.43, "unit": "pg/mg"},
      {"measurement": "Foxp3 (fold change)", "setting": "[3]", "result": 1.32, "unit": "fold change"},
      {"measurement": "Tbet (fold change)", "setting": "[3]", "result": 1.27, "unit": "fold change"},
      {"measurement": "Tbet/Foxp3", "setting": "[3]", "result": 1.05},
      {"measurement": "IFN-γ/IL-10", "setting": "[3]", "result": 1.32},
      {"measurement": "IL-10", "setting": "[3]", "result": 8.71, "unit": "pg/mg"},
      {"measurement": "Interferon (IFN)-γ", "setting": "[3]", "result": 11.29, "unit": "pg/mg"},
      {"measurement": "NK cell cytoxicity (%)", "setting": "[3]", "result": 6.93, "unit": "%"},
      {"measurement": "Phagocytosis (%)", "setting": "[3]", "result": 34.55, "unit": "%"},
      {"measurement": "TNF-α", "setting": "[3]", "result": 4.00, "unit": "pg/mg"},
      {"measurement": "TNF-α/IL-10", "setting": "[3]", "result": 0.47},
      {"measurement": "Colon (cm)", "setting": "healthy animal", "result": 5.03, "unit": "cm"},
      {"measurement": "IFN-γ/IL-10", "setting": "healthy animal", "result": 1.52},
      {"measurement": "IL-10", "setting": "healthy animal", "result": 42.89, "unit": "pg/mg"},
      {"measurement": "Interferon (IFN)-γ", "setting": "healthy animal", "result": 64.83, "unit": "pg/mg"},
      {"measurement": "MPO activity", "setting": "healthy animal", "result": 3.53, "unit": "μUnit/mg"},
      {"measurement": "TNF-a/IL-10", "setting": "healthy animal", "result": 0.37},
      {"measurement": "TNF-α", "setting": "healthy animal", "result": 15.73, "unit": "pg/mg"}
    ]},
    {"substance": "Lactobacillus rhamnosus NK210", "values": [
      {"measurement": "Foxp3 (fold change)", "setting": "[1]", "result": 0.69, "unit": "fold change"},
      {"measurement": "Tbet (fold change)", "setting": "[1]", "result": 1.07, "unit": "fold change"},
      {"measurement": "Tbet/Foxp3", "setting": "[1]", "result": 1.66},
      {"measurement": "IFN-γ/IL-10", "setting": "[1]", "result": 0.87},
      {"measurement": "IL-10", "setting": "[1]", "result": 8.25, "unit": "pg/mg"},
      {"measurement": "Interferon (IFN)-γ", "setting": "[1]", "result": 7.03, "unit": "pg/mg"},
      {"measurement": "NK cell cytoxicity (%)", "setting": "[1]", "result": 7.34, "unit": "%"},
      {"measurement": "Phagocytosis (%)", "setting": "[1]", "result": 74.02, "unit": "%"},
      {"measurement": "TNF-a/IL-10", "setting": "[1]", "result": 0.45},
      {"measurement": "TNF-α", "setting": "[1]", "result": 3.57, "unit": "pg/mg"},
      {"measurement": "Exoporation (%) (in NOR task)", "setting": "[2]", "result": 76.25, "unit": "%"},
      {"measurement": "Spontaneous alteration (%) (in Y-maze task)", "setting": "[2]", "result": 73.01, "unit": "%"},
      {"measurement": "IFN-γ/IL-10", "setting": "[2]", "result": 0.47},
      {"measurement": "IL-10", "setting": "[2]", "result": 48.89, "unit": "pg/mg"},
      {"measurement": "Interferon (IFN)-γ", "setting": "[2]", "result": 23.18, "unit": "pg/mg"},
      {"measurement": "TNF-a/IL-10", "setting": "[2]", "result": 0.26},
      {"measurement": "TNF-α", "setting": "[2]", "result": 13.37, "unit": "pg/mg"},
      {"measurement": "Foxp3 (fold change)", "setting": "[3]", "result": 1.07, "unit": "fold change"},
      {"measurement": "Tbet (fold change)", "setting": "[3]", "result": 1.58, "unit": "fold change"},
      {"measurement": "Tbet/Foxp3", "setting": "[3]", "result": 1.55},
      {"measurement": "IFN-γ/IL-10", "setting": "[3]", "result": 1.15},
      {"measurement": "IL-10", "setting": "[3]", "result": 10.49, "unit": "pg/mg"},
      {"measurement": "Interferon (IFN)-γ", "setting": "[3]", "result": 11.92, "unit": "pg/mg"},
      {"measurement": "NK cell cytoxicity (%)", "setting": "[3]", "result": 7.78, "unit": "%"},
      {"measurement": "Phagocytosis (%)", "setting": "[3]", "result": 36.01, "unit": "%"},
      {"measurement": "TNF-α", "setting": "[3]", "result": 4.00, "unit": "pg/mg"},
      {"measurement": "TNF-α/IL-10", "setting": "[3]", "result": 0.38},
      {"measurement": "Colon (cm)", "setting": "healthy animal", "result": 5.12, "unit": "cm"},
      {"measurement": "IFN-γ/IL-10", "setting": "healthy animal", "result": 1.40},
      {"measurement": "IL-10", "setting": "healthy animal", "result": 39.95, "unit": "pg/mg"},
      {"measurement": "Interferon (IFN)-γ", "setting": "healthy animal", "result": 55.75, "unit": "pg/mg"},
      {"measurement": "MPO activity", "setting": "healthy animal", "result": 4.18, "unit": "μUnit/mg"},
      {"measurement": "TNF-a/IL-10", "setting": "healthy animal", "result": 0.34},
      {"measurement": "TNF-α", "setting": "healthy animal", "result": 13.40, "unit": "pg/mg"}
    ]}
  ]
}
